Measurements reported in US8722578B2, “Spiroheterocyclic pyrrolidinedione herbicidal compositions” (Syngenta Participations AG, priority 2008, dated 2014).

Legend:
[1] = tested on: Alopecurus myosuroides (ALOMY); experiment: Example B pre-emergence herbicidal activity, glasshouse pot test; format: in vivo; conditions: 312 h, first table (headed Post-Emergence, taken as pre-emergence), rate 1000 g/ha, evaluated after 13 days, read-out: ALOMY activity (100=total damage to plant; 0=no damage to plant)
Method: (§1) Seeds of a variety of test species are sown in standard soil in pots. After cultivation for one day (pre-emergence) or after 8 days cultivation (post-emergence) under controlled conditions in a glasshouse (at 24/16° C., day/night; 14 hours light; 65% humidity), the plants are sprayed with an aqueous spray solution derived from the formulation of the technical active ingredient in acetone/water (50:50) solution containing 0.5% Tween 20 (polyoxyethelyene sorbitan monolaurate, CAS RN 9005-64-5). The test plants are then grown in a glasshouse under controlled conditions in a glasshouse (at 24/16° C., day/night; 14 hours light; 65% humidity) and watered twice daily. After 13 days for pre and post-emergence, the test is evaluated (100=total damage to plant; 0=no damage to plant). Test Plants: Setaria faberi (SETFA), Alopecurus myosuroides (ALOMY), Echinochloa crus-galli (ECHCG), Avena fatua (AVEFA)

[2] = tested on: Setaria faberi (SETFA); experiment: as above; format: in vivo; conditions: 312 h, first table (headed Post-Emergence, taken as pre-emergence), rate 1000 g/ha, evaluated after 13 days, read-out: SETFA activity (100=total damage to plant; 0=no damage to plant)
Method: as §1

[3] = tested on: Avena fatua (AVEFA); experiment: as above; format: in vivo; conditions: 312 h, first table (headed Post-Emergence, taken as pre-emergence), rate 1000 g/ha, evaluated after 13 days, read-out: AVEFA activity (100=total damage to plant; 0=no damage to plant)
Method: as §1

[4] = tested on: Echinochloa crus-galli (ECHCG); experiment: as above; format: in vivo; conditions: 312 h, first table (headed Post-Emergence, taken as pre-emergence), rate 1000 g/ha, evaluated after 13 days, read-out: ECHCG activity (100=total damage to plant; 0=no damage to plant)
Method: as §1

[5] = tested on: Alopecurus myosuroides (ALOMY); experiment: Example B post-emergence herbicidal activity, glasshouse pot test; format: in vivo; conditions: 312 h, rate 1000 g/ha, evaluated after 13 days, read-out: ALOMY post-emergence activity (100=total damage to plant; 0=no damage to plant)
Method: as §1

[6] = tested on: Setaria faberi (SETFA); experiment: as above; format: in vivo; conditions: 312 h, rate 1000 g/ha, evaluated after 13 days, read-out: SETFA post-emergence activity (100=total damage to plant; 0=no damage to plant)
Method: as §1

[7] = tested on: Avena fatua (AVEFA); experiment: as above; format: in vivo; conditions: 312 h, rate 1000 g/ha, evaluated after 13 days, read-out: AVEFA post-emergence activity (100=total damage to plant; 0=no damage to plant)
Method: as §1

[8] = tested on: Echinochloa crus-galli (ECHCG); experiment: as above; format: in vivo; conditions: 312 h, rate 1000 g/ha, evaluated after 13 days, read-out: ECHCG post-emergence activity (100=total damage to plant; 0=no damage to plant)
Method: as §1

[9] = tested on: Lolium perenne (LOLPE); experiment: Example A post-emergence herbicidal activity, glasshouse pot test; format: in vivo; conditions: 360 h, rate 125 g/ha, evaluated 15 days after spraying, read-out: LOLPE post-emergence activity (100=total damage to plant; 0=no damage to plant)
Method: (§2) Monocotyledonous and dicotyledonous test plants are sown in standard soil in pots. After cultivation for one day (pre-emergence) or after 10 days cultivation (post-emergence) under controlled conditions in a glasshouse, the plants are sprayed with an aqueous spray solution derived from the formulation of the technical active ingredient in 0.6 ml acetone and 45 ml formulation solution containing 10.6% Emulsogen EL (Registry number 61791-12-6), 42.2% N-methylpyrrolidone, 42.2% dipropylene glycol monomethyl ether (Registry number 34590-94-8) and 0.2% X-77 (Registry number 11097-66-8). The test plants are then grown in a greenhouse under optimum conditions until, 15 days later for post-emergence and 20 days for pre-emergence, the test is evaluated (100=total damage to plant; 0=no damage to plant). Test Plants: Alopecurus myosuroides (ALOMY), Avena fatua (AVEFA), Lolium perenne (LOLPE), Setaria faberi (SETFA), Digitaria sanguinalis (DIGSA), Echinochloa crus-galli (ECHCG) Post-Emergence Activity

[10] = tested on: Alopecurus myosuroides (ALOMY); experiment: as above; format: in vivo; conditions: 360 h, rate 125 g/ha, evaluated 15 days after spraying, read-out: ALOMY post-emergence activity (100=total damage to plant; 0=no damage to plant)
Method: as §2

[11] = tested on: Setaria faberi (SETFA); experiment: as above; format: in vivo; conditions: 360 h, rate 125 g/ha, evaluated 15 days after spraying, read-out: SETFA post-emergence activity (100=total damage to plant; 0=no damage to plant)
Method: as §2

[12] = tested on: Avena fatua (AVEFA); experiment: as above; format: in vivo; conditions: 360 h, rate 125 g/ha, evaluated 15 days after spraying, read-out: AVEFA post-emergence activity (100=total damage to plant; 0=no damage to plant)
Method: as §2

[13] = tested on: Echinochloa crus-galli (ECHCG); experiment: as above; format: in vivo; conditions: 360 h, rate 125 g/ha, evaluated 15 days after spraying, read-out: ECHOG post-emergence activity (100=total damage to plant; 0=no damage to plant)
Method: as §2

[14] = tested on: Digitaria sanguinalis (DIGSA); experiment: as above; format: in vivo; conditions: 360 h, rate 125 g/ha, evaluated 15 days after spraying, read-out: DIGSA post-emergence activity (100=total damage to plant; 0=no damage to plant)
Method: as §2

[15] = tested on: Lolium perenne (LOLPE); experiment: Example A pre-emergence herbicidal activity, glasshouse pot test; format: in vivo; conditions: 480 h, rate 250 g/ha, evaluated 20 days after spraying, read-out: LOLPE pre-emergence activity (100=total damage to plant; 0=no damage to plant)
Method: as §2, with “Pre-Emergence” for “Post-Emergence”

[16] = tested on: Alopecurus myosuroides (ALOMY); experiment: as above; format: in vivo; conditions: 480 h, rate 250 g/ha, evaluated 20 days after spraying, read-out: ALOMY pre-emergence activity (100=total damage to plant; 0=no damage to plant)
Method: as §2, with “Pre-Emergence” for “Post-Emergence”

[17] = tested on: Setaria faberi (SETFA); experiment: as above; format: in vivo; conditions: 480 h, rate 250 g/ha, evaluated 20 days after spraying, read-out: SETFA pre-emergence activity (100=total damage to plant; 0=no damage to plant)
Method: as §2, with “Pre-Emergence” for “Post-Emergence”

[18] = tested on: Avena fatua (AVEFA); experiment: as above; format: in vivo; conditions: 480 h, rate 250 g/ha, evaluated 20 days after spraying, read-out: AVEFA pre-emergence activity (100=total damage to plant; 0=no damage to plant)
Method: as §2, with “Pre-Emergence” for “Post-Emergence”

[19] = tested on: Echinochloa crus-galli (ECHCG); experiment: as above; format: in vivo; conditions: 480 h, rate 250 g/ha, evaluated 20 days after spraying, read-out: ECHOG pre-emergence activity (100=total damage to plant; 0=no damage to plant)
Method: as §2, with “Pre-Emergence” for “Post-Emergence”

[20] = tested on: Digitaria sanguinalis (DIGSA); experiment: as above; format: in vivo; conditions: 480 h, rate 250 g/ha, evaluated 20 days after spraying, read-out: DIGSA pre-emergence activity (100=total damage to plant; 0=no damage to plant)
Method: as §2, with “Pre-Emergence” for “Post-Emergence”

SMILES | pest or weed control at 1000 g/ha [1] [%] | pest or weed control at 1000 g/ha [2] [%] | pest or weed control at 1000 g/ha [3] [%] | pest or weed control at 1000 g/ha [4] [%] | pest or weed control at 1000 g/ha [5] [%] | pest or weed control at 1000 g/ha [6] [%] | pest or weed control at 1000 g/ha [7] [%] | pest or weed control at 1000 g/ha [8] [%] | pest or weed control at 125 g/ha [9] [%] | pest or weed control at 125 g/ha [10] [%] | pest or weed control at 125 g/ha [11] [%] | pest or weed control at 125 g/ha [12] [%] | pest or weed control at 125 g/ha [13] [%] | pest or weed control at 125 g/ha [14] [%] | pest or weed control at 250 g/ha [15] [%] | pest or weed control at 250 g/ha [16] [%] | pest or weed control at 250 g/ha [17] [%] | pest or weed control at 250 g/ha [18] [%] | pest or weed control at 250 g/ha [19] [%] | pest or weed control at 250 g/ha [20] [%] | other results
CCOC(=O)OC1=C(c2c(C)cc(C)cc2C)C(=O)NC12CCN(OC)CC2 [Compound P18] | 100 | 100 | 90 | 100 | 100 | 100 | 90 | 100 | 70 | 70 | 60 | 60 | 80 | 80 | 70 | 60 | 20 | 70 | 30 | 20 | –
C=CCOC(=O)OC1=C(c2c(C)cc(C)cc2C)C(=O)NC12CCN(OC)CC2 [Compound P43] | 100 | 100 | 90 | 100 | 90 | 90 | 90 | 90 | 70 | 60 | 50 | 40 | 60 | 70 | 70 | 80 | 80 | 70 | 80 | 90 | melting point: 174 to 176 °C
CON1CCC2(CC1)NC(=O)C(c1cc(-c3ccc(Cl)cc3)ccc1C)C2=O (stereo not drawn) [Compound T9] | – | – | – | – | 80 | 100 | 90 | 100 | 50 | 90 | 90 | 80 | 100 | 100 | 30 | 0 | 0 | 60 | 10 | 0 | –
CCOC(=O)OC1=C(c2ccc(Cl)cc2Cl)C(=O)NC12CCN(OC)CC2 [Compound P16] | 70 | 90 | 50 | 40 | 100 | 100 | 80 | 100 | 20 | 70 | 50 | 30 | 50 | 50 | 50 | 30 | 10 | 30 | 20 | 0 | melting point: 187 to 189 °C
